In patent US20240065271A1, “MIXTURES AND COMPOSITIONS COMPRISING FUSARICIDIN A, FUSARICIDIN B AND FUNGICIDES” (BASF SE, priority 2020, published 2024):

Columns and labels:
[1] = system: Pyricularia oryzae; test: microbe, parasite or virus in culture; format: cell-based; conditions: for Observed efficacy: single active
[2] = system: Colletotrichum orbiculare; test: Activity against Colletotrichum orbiculare in the microtiterplate test (COLLLA); format: cell-based; conditions: single active
[3] = system: Sclerotinia sclerotiorum; test: Activity against Sclerotinia sclerotiorum in the microtiterplate test (SCLESC); format: cell-based; conditions: single active
[4] = system: Botrytis cinerea; test: Activity against grey mold Botrytis cinerea in the microtiterplate test (BOTRCI); format: cell-based; conditions: single active
[5] = system: Staphylococcus aureus; conditions: clinically relevant fungi and gram-positive bacteria such a Staphylococcus aureus; cited from earlier work
[6] = Pyricularia oryzae, 168 h, read-out: Observed efficacy

Compound CCCCCCCCc1c(CC)nc2ncnn2c1N [Ametoctradin, ametoctradin] has an Observed efficacy ([1]; 4 ppm) of 12.

For Cc1c(Br)c2ccc(F)cc2n1S(=O)(=O)c1ncn(S(=O)(=O)N(C)C)n1 [Amisulbrom, amisulbrom], the Observed efficacy ([1]; 1 ppm) was 3 and the Observed efficacy ([1]; 4 ppm) was 11.

In the case of CC(C)[C@H](NC(=O)O)C(=O)N[C@H](C)c1nc2ccc(F)cc2s1 [Benthiavalicarb, benthiavalicarb], the Observed efficacy ([1]; 4 ppm) is reported as 0 and the Observed efficacy ([1]; 16 ppm) is reported as 8.

In the case of O=C(Nc1ccccc1-c1ccc(Cl)cc1)c1cccnc1Cl [Boscalid, boscalid], the inhibition of growth at 1 ppm [1, 6] is reported as 5%.

In the case of Cc1ccc(-c2c(Cl)nc(C#N)n2S(=O)(=O)N(C)C)cc1 [Cyazofamid, cyazofamid], the inhibition of growth at 0.25 ppm [1, 6] is reported as 6% and the inhibition of growth at 1 ppm [1, 6] is reported as 16%.

CCNC(=O)NC(=O)/C(C#N)=N/OC [Cymoxanil, cymoxanil] gave an inhibition of growth at 16 ppm [1, 6] of 3% and an inhibition of growth at 63 ppm [1, 6] of 11%.

Compound N#Cc1sc2c(=O)c3ccccc3c(=O)c=2sc1C#N [Dithianon, dithianon] has an Observed efficacy ([2]; 0.063 ppm) of 0 and an Observed efficacy ([3]; 1 ppm) of 57.

O=[N+]([O-])c1cc(C(F)(F)F)c(Cl)c([N+](=O)[O-])c1Nc1ncc(C(F)(F)F)cc1Cl [Fluazinam, fluazinam] gave an inhibition of growth at 0.063 ppm [1, 6] of 8%.

Compound O=C(NCc1ncc(C(F)(F)F)cc1Cl)c1c(Cl)cccc1Cl [Fluopicolid, fluopicolide] has an Observed efficacy ([1]; 1 ppm) of 2.

Compound CO/N=C(/C1=NOCCO1)c1ccccc1Oc1ncnc(Oc2ccccc2Cl)c1F [Fluoxastrobin, fluoxastrobin] has an inhibition of growth at 0.016 ppm [1, 6] of 8%.

With Cn1cc(C(=O)Nc2ccccc2-c2cc(F)c(F)c(F)c2)c(C(F)F)n1 [Fluxapyroxad, fluxapyroxad] the Observed efficacy ([1]; 0.016 ppm) was 3.

Cc1ccc(C(C)NC(=O)[C@@H](NC(=O)OC(C)C)C(C)C)cc1 (stereo partly shown) [Iprovalicarb, iprovalicarb] gave an Observed efficacy ([1]; 1 ppm) of 8 and an Observed efficacy ([1]; 4 ppm) of 17.

In the case of C#CCOc1ccc(CCNC(=O)C(OCC#C)c2ccc(Cl)cc2)cc1OC (stereo not shown) [Mandipropamid, mandipropamid], the Observed efficacy ([4]; 63 ppm) is reported as 16, the Observed efficacy ([1]; 16 ppm) is reported as 7 and the Observed efficacy ([3]; 63 ppm) is reported as 29.

Work on Cc1cccc(-n2nnn(C)c2=O)c1COc1ccn(-c2ccc(Cl)cc2)n1 [Methyltetraprol, metyltetraprole] yielded an Observed efficacy ([1]; 0.016 ppm) of 16 and an Observed efficacy ([2]; 0.063 ppm) of 19.

Work on COc1cc(C)c(C(=O)c2c(OC)ccc(Br)c2C)c(OC)c1OC [Metrafenon, metrafenone] yielded an inhibition of growth at 0.25 ppm [1, 6] of 3%.

For Cc1cc(C(F)(F)F)nn1CC(=O)N1CCC(c2nc(C3=NOC(c4c(F)cccc4F)C3)cs2)CC1 (stereo not shown) [Oxathiapiprolin, oxathiapiprolin], the Observed efficacy ([4]; 16 ppm) was 11.

With COc1cc(C)c(C(=O)c2c(OC)ncc(Cl)c2C)c(OC)c1OC [Pyriofenon, pyriofenone] the Observed efficacy ([4]; 16 ppm) was 12, the Observed efficacy ([1]; 4 ppm) was 6 and the Observed efficacy ([1]; 16 ppm) was 18. For the same compound, the Observed efficacy ([2]; 16 ppm) was 20.

For CCCN(CC)CC1COC2(CCC(C(C)(C)C)CC2)O1 (stereo not shown) [Spiroxamin, spiroxamine], the inhibition of growth at 4 ppm [1, 6] was 3%, the inhibition of growth at 16 ppm [1, 6] was 17% and the Observed efficacy ([2]; 16 ppm) was 8.

In the case of CON=C(C(=O)OC)c1ccccc1CON=C(C)c1cccc(C(F)(F)F)c1 [Trifloxystrobin, trifloxystrobin], the Observed efficacy ([4]; 0.063 ppm) is reported as 0 and the Observed efficacy ([3]; 0.063 ppm) is reported as 41.

COC(=O)CC(NC(=O)[C@@H](NC(=O)OC(C)C)C(C)C)c1ccc(Cl)cc1 (stereo partly shown) [Valifenalat, valifenalate] gave an Observed efficacy ([1]; 4 ppm) of 1.

With CCC(C)(NC(=O)c1cc(Cl)c(C)c(Cl)c1)C(=O)CCl (stereo not shown) [Zoxamid, zoxamide] the Observed efficacy ([4]; 1 ppm) was 11, the inhibition of growth at 4 ppm [1, 6] was 39% and the Observed efficacy ([2]; 1 ppm) was 0. It also gave an Observed efficacy ([3]; 1 ppm) of 0.

Work on fosetyl-aluminium yielded an Observed efficacy ([1]; 4 ppm) of 4.

For fusaricidin A, the MIC value range [5] is listed as 0.78 to 3.12 µg/mL.

For mancozeb, the Observed efficacy ([1]; 0.25 ppm) was 5.

Compound metiram has an Observed efficacy ([1]; 16 ppm) of 17.
